pIC50, pKd: −log10 of the molar value. Like-named read-outs stand apart in the source and are kept apart here. Blank lines part the entries; values can stand above or below the compound they belong to. Where a SMILES comes first, the peptide text is derived from it. Bridges are numbered along the chain shown (N, C = ends).
How the values were obtained:
[1] = system: alternative pathway complement activation; assay: Alternative pathway (AP) complement activation ELISA in normal human serum; format: biochemical; settings: diluted human serum (figure legends 1%; method 10% NHS)
Protocol: The inhibitory activity of selected peptides in preventing pathway-specific complement activation was evaluated using ELISA as previously described. All assays used normal human serum (NHS), pooled from five unrelated, anonymized healthy donors, obtained with informed consent according to the local ethics committee, and following the guidelines of the Declaration of Helsinki (Blutspendezentrum Basel, Switzerland).
The activity of selected peptides in preventing the activation of the alternative pathway was evaluated by analogy to the classical pathway ELISA described above, with some adjustments. Flat-bottom PolySorb 96-well plates (Thermo Fisher) were coated overnight at room temperature with 40 μg/mL lipopolysaccharide from Salmonella enteritidis (Sigma-Aldrich) in 0.1 M sodium carbonate buffer and washed 5 times with PBS-T. Serial dilutions of peptides were prepared in 10% (v/v) pooled NHS using HBBT + assay buffer (10 mM HEPES, 150 mM NaCl, pH 7.4, 0.5% BSA, 5 mM EGTA, 5 mM MgCl2, and 0.1% Tween-20), with samples diluted in 10% (v/v) NHS. Negative controls included each inhibitor in assay buffer alone, assay buffer only, and 10% (v/v) serum with 10 mM EDTA. HBBT+ with 10% (v/v) pooled NHS served as the 100%-control. Subsequent steps were performed as described above.

[2] = system: classical pathway complement activation; assay: Classical pathway (CP) complement activation ELISA in normal human serum; format: biochemical; settings: for pIC50: CP ELISA
Protocol: The inhibitory activity of selected peptides in preventing pathway-specific complement activation was evaluated using ELISA as previously described. All assays used normal human serum (NHS), pooled from five unrelated, anonymized healthy donors, obtained with informed consent according to the local ethics committee, and following the guidelines of the Declaration of Helsinki (Blutspendezentrum Basel, Switzerland). To assess classical pathway activity, flat-bottom MaxiSorp 96-well plates (Thermo Fisher) were coated overnight at room temperature with 33 μg/mL IgM (Sigma) in a 0.1 M sodium carbonate buffer. Plates were washed 5 times with phosphate-buffered saline (Dubleccòs, Bioconcept) supplemented with 0.05% Tween-20 (PBS-T). Serial dilutions of peptides were prepared in 1% (v/v) NHS using HBBT++ assay buffer (10 mM HEPES, 150 mM NaCl, pH 7.4, 0.5% BSA, 0.15 mM CaCl2, 0.5 mM MgCl2, 0.1% Tween-20), with samples diluted in 1% (v/v) NHS. Negative controls included each inhibitor in assay buffer alone, assay buffer only, and 1% (v/v) NHS with 10 mM EDTA. HBBT++ with 1% (v/v) pooled NHS served as the 100%-control. After incubating for 1 h at 37 °C and shaking at 700 rpm, plates were washed 5 times with PBS-T. Next, 100 μL of biotinylated monoclonal mouse antihuman TCC antibody (1:1000, Hycult, clone: aE11) to detect terminal complement complexes was added to each well, followed by 1 h incubation at room temperature while shaking. After another 5 washes with PBS-T, 100 μL of HRP-conjugated NeutrAvidin (1:10,000, Invitrogen) was added to each well and incubated for 20 min at room temperature while shaking. Plates were washed 5 more times with PBS-T before adding 100 μL of 1-Step Turbo TMB-ELISA solution (Thermo Scientific) to each well. The reaction was allowed to develop until a light blue color appeared, and then stopped with 100 μL of 2 M sulfuric acid. Colorimetric detection was performed at 450 nm by using a plate reader (Synergy HT, Biotek). All assays were conducted in triplicate and normalized against 100% (no inhibitor, 1% (v/v) serum in buffer) and 0% (1% (v/v) serum in EDTA buffer) controls. In the cases of Cp60 and Cp40, 5% (v/v) NHS was used instead of 1% (v/v) NHS in some assays. Inhibition curves were fitted using nonlinear regression to a normalized variable slope model in Prism (v9-10, GraphPad).

[3] = molecular target: T1, human C3b (Homo sapiens, UniProt P01024); assay: SPR kinetic binding to immobilized human C3b; settings: for k a, affinity hC3b / k d, affinity hC3b / pKd: SPR, 1:1 Langmuir fit, average of 3 independent experiments, SD in brackets; for pKd: read-out: K D, affinity hC3b
T1 construct: purchased Complement Technology, Tyler, TX, USA
T1 sequence (P01024 23-667 limits assumed): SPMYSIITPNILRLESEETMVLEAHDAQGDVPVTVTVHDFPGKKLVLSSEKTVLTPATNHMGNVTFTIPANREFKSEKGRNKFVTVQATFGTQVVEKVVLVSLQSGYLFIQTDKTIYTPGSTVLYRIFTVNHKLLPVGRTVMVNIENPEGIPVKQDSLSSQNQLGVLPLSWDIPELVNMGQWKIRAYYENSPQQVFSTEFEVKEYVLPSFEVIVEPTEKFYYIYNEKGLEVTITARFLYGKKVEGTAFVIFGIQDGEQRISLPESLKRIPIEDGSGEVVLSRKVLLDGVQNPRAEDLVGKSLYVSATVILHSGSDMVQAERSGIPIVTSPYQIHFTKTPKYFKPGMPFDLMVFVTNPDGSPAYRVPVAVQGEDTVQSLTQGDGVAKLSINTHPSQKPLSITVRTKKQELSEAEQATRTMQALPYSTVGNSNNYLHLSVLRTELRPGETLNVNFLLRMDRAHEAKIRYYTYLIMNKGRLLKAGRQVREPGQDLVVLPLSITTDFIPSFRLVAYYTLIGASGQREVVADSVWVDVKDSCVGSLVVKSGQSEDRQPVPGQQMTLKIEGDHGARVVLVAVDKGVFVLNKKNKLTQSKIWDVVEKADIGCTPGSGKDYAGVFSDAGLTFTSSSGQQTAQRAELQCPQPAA
T1 sequence (P01024 749-1663 partner limits assumed): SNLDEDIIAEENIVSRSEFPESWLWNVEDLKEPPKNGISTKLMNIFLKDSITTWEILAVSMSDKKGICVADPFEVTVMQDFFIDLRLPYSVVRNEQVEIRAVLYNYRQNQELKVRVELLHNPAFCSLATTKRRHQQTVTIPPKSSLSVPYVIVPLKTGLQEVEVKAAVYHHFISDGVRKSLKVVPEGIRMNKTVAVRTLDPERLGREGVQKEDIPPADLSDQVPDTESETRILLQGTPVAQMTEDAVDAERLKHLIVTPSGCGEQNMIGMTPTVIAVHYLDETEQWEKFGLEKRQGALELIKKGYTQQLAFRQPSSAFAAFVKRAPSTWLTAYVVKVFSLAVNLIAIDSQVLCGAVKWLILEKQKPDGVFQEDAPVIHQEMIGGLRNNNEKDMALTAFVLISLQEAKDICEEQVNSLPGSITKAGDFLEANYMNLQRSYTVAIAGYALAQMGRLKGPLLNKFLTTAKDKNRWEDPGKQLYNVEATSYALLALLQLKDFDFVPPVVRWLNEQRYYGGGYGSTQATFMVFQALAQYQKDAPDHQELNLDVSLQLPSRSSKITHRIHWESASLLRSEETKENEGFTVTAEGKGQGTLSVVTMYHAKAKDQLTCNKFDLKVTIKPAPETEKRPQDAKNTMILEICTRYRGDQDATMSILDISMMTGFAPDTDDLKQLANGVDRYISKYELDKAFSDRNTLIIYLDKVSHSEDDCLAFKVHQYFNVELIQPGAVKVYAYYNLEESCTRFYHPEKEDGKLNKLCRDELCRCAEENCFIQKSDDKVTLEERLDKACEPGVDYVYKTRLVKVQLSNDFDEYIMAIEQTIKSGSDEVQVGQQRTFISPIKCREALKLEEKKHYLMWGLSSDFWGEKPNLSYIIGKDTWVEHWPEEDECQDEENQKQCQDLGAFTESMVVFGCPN
Protocol: Experiments were conducted at 25 °C in HBST buffer (10 mM HEPES, 150 mM NaCl, and 0.05% Tween-20, pH 7.4; XanTec bioanalytics). Human C3b (Complement Technology, Tyler, TX, USA) was immobilized via amine-reactive coupling. […] Individual peptide samples were injected for 120 s, followed by a 180 s dissociation phase. […] Signals from the reference cell and buffer blank injections were subtracted within each dilution series to correct for buffer effects and injection artifacts. Data were fitted to a Langmuir 1:1 binding model to calculate association (k a) and dissociation (k d) rate constants, and the equilibration constant K D is calculated based on the equation: K D = k d/k a. In the case of Cp40 derivatives and Cp60, a single-cycle approach was used for kinetic analysis by injecting 5 increasing concentrations of each compound (0.5-40 nM) consecutively without a regeneration period in between injections. Individual injections within a cycle were 120 s long with a 5 min dissociation phase between injections. […] Analog Cp40 was included in each experimental series as a reference and internal control. Signals from the reference cell and buffer blank injections were subtracted to correct for buffer effects and injection artifacts. Kinetic data were processed in BiaEvaluation (Cytiva) using single-cycle evaluation by global fitting each data set to a Langmuir 1:1 binding model. The reported kinetic parameters (Tables and ) indicate the mean values and standard deviations of three independent experiments. SPR sensorgrams are provided in the Supporting Information.

[4] = molecular target: T1, human C3b; assay: SPR kinetic binding to immobilized human C3b; settings: K D determined as steady state affinity, read-out: K D, affinity hC3b, steady state affinity
[5] = first-in-human trials, cited from earlier work

SMILES: CC[C@H](C)[C@H](NC(C)=O)C(=O)N[C@H]1CSSC[C@@H](C(=O)N[C@H](C(N)=O)[C@@H](C)O)NC(=O)[C@H](CCCN=C(N)N)NC(=O)[C@H](Cc2c[nH]cn2)NC(=O)[C@H](C)NC(=O)CNC(=O)[C@H](Cc2c[nH]c3ccccc23)NC(=O)[C@H](CC(=O)O)NC(=O)[C@H](CCC(N)=O)NC(=O)[C@H](Cc2c[nH]c3ccccc23)NC(=O)[C@H](C(C)C)NC1=O [Cp01, reference compound]
pIC50 [1]: 5.85 | pIC50 ([2]; 1% diluted normal human serum): 4.70

fold improvement in affinity compared with Cp01 ([3]; K D ratio vs Cp01): ~10 fold | k a, affinity hC3b [3]: 8.8(0.1) 10^5 M^–1 s^–1 | k d, affinity hC3b [3]: 1.7(0.1) 10^–2 s^–1 | pKd [3]: 7.70
SMILES: CC[C@H](C)[C@H](NC(C)=O)C(=O)N[C@H]1CSSC[C@@H](C(=O)N[C@H](C(N)=O)[C@@H](C)O)NC(=O)[C@H](CCCNC(=N)N)NC(=O)[C@H](Cc2c[nH]cn2)NC(=O)[C@H](C)NC(=O)CNC(=O)[C@H](Cc2c[nH]c3ccccc23)NC(=O)[C@H](CC(=O)O)NC(=O)[C@H](CCC(N)=O)NC(=O)[C@H](Cc2c[nH]c3ccccc23)NC(=O)[C@H]([C@@H](C)CC)NC1=O [Cp01-Val3Ile] (Ac-ICIWQDWGAHRCT-NH2; disulfide 2-12)
pIC50 [1]: 6.70 | pIC50 ([2]; 1% diluted normal human serum, listed as Cp01-V3I): 6.37 | fold enhanced potency for inhibiting complement activation in vitro vs Cp01 ([2]; IC50 ratio vs Cp01): up to 40 fold

pKd [4]: 6.26
SMILES: CC[C@@H](C)[C@@H]1NC(=O)[C@@H](NC(=O)[C@@H](NC(C)=O)[C@@H](C)CC)CSSC[C@@H](C(=O)N[C@H](C(N)=O)[C@@H](C)O)NC(=O)[C@H](CCCNC(=N)N)NC(=O)[C@H](Cc2c[nH]cn2)NC(=O)[C@H](C)NC(=O)CNC(=O)[C@H](Cc2c[nH]c3ccccc23)NC(=O)[C@H](CC(=O)O)NC(=O)[C@H](CCC(N)=O)NC(=O)[C@H](Cc2c[nH]c3ccccc23)NC1=O [Cp01-Val3aIle]

k a, affinity hC3b [3]: 17.6(0.3) 10^5 M^–1 s^–1 | k d, affinity hC3b [3]: 0.1 10^–2 s^–1 | k d, affinity hC3b ([3]; listed as Cp40 Val): 0.1(0.0) 10^–2 s^–1 | pKd [3]: 9.15
SMILES: CC[C@H](C)[C@H](NC(=O)[C@H](N)Cc1ccc(O)cc1)C(=O)N[C@H]1CSSC[C@@H](C(=O)N(C)[C@H](C(N)=O)[C@@H](C)CC)NC(=O)[C@H](CCCNC(=N)N)NC(=O)[C@H](Cc2c[nH]cn2)NC(=O)[C@H](C)NC(=O)CN(C)C(=O)[C@H](Cc2c[nH]c3ccccc23)NC(=O)[C@H](CC(=O)O)NC(=O)[C@H](CCC(N)=O)NC(=O)[C@H](Cc2cn(C)c3ccccc23)NC(=O)[C@H](C(C)C)NC1=O [Cp40, reference compound]
immunogenicity [5]: no evidence of drug-related immunogenicity or increase in antidrug antibodies | safety profile ([5]; single and multiple doses via different routes): good safety profile | pIC50 ([2]; 5% human serum): 6.80
